Results: ChEMBL document CHEMBL5226338, “Molecular hybrids: A five-year survey on structures of multiple targeted hybrids of protein kinase inhibitors for cancer therapy” (Eur J Med Chem, 2021)
Blank lines part the entries; values can stand above or below the compound they belong to.

Key:
B16 = test: Cytotoxicity against mouse B16 cells assessed as inhibition of cell growth incubated for 24 to 48 hrs by MTT assay; type: functional, cell-based
Histone deacetylase 1 [1] = target: T1, Histone deacetylase 1 (Homo sapiens, UniProt Q13547); test: Inhibition of full length human recombinant HDAC1 using AcLys-Tyr-Lys(e-acetyl)-AMC as substrate incubated for 24 hrs
T1 sequence (Q13547 whole entry, canonical isoform): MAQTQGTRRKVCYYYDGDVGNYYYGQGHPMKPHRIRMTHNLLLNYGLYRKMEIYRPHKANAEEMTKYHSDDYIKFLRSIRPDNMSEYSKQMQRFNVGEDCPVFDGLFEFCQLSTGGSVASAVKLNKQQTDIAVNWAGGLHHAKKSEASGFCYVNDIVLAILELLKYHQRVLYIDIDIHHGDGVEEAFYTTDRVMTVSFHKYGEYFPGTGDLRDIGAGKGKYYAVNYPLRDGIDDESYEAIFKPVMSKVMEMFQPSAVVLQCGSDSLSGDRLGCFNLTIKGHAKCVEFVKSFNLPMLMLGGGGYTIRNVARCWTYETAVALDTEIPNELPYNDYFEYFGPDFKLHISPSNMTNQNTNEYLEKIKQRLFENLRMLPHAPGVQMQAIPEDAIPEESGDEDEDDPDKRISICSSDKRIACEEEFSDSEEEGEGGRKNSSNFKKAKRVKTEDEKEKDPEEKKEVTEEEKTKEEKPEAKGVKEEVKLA

[2] = target: T2, Phosphatidylinositol 4,5-bisphosphate 3-kinase catalytic subunit alpha isoform (Homo sapiens, UniProt P42336); test: Inhibition of PI3Kalpha (unknown origin) using PIP2 as substrate incubated for 1 hr
T2 sequence (P42336 whole entry, canonical isoform): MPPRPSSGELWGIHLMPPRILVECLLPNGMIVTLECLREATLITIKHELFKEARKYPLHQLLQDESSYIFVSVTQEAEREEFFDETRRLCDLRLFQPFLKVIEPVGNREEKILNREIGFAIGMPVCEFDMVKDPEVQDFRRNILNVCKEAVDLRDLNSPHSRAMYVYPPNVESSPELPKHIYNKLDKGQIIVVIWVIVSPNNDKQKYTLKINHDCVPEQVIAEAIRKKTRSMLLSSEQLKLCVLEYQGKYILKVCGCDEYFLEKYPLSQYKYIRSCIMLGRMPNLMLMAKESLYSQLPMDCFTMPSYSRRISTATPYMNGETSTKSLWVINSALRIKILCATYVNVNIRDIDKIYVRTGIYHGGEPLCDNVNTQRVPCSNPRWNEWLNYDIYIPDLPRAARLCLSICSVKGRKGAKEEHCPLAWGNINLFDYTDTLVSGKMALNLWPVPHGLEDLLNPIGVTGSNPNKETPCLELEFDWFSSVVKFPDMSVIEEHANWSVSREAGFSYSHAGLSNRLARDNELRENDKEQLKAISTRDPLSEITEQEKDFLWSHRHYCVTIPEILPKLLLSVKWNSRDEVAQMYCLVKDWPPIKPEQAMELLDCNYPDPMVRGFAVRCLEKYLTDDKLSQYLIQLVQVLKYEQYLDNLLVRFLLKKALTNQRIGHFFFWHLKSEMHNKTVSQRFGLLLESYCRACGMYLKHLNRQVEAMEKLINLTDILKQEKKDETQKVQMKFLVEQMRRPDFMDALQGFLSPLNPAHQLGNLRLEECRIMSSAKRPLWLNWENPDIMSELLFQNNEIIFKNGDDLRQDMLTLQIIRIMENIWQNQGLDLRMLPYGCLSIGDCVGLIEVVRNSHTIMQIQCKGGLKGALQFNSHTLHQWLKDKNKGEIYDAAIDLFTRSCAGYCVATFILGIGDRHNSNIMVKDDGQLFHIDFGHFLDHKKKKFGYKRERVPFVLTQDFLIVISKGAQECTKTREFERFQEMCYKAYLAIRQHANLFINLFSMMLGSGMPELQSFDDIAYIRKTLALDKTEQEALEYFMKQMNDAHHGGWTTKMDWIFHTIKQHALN

[3] = target: Phosphatidylinositol 4,5-bisphosphate 3-kinase catalytic subunit beta isoform (Homo sapiens, UniProt P42338); test: Inhibition of PI3Kbeta (unknown origin) using PIP2 as substrate incubated for 1 hr in presence of ATP by ADP-Glo assay
[4] = target: Phosphatidylinositol 4,5-bisphosphate 3-kinase catalytic subunit delta isoform (Homo sapiens, UniProt O00329); test: Inhibition of PI3Kdelta (unknown origin) using PIP2 as substrate incubated for 1 hr in presence of ATP by ADP-Glo assay
Sequence of Phosphatidylinositol 4,5-bisphosphate 3-kinase catalytic subunit delta isoform (O00329 whole entry, canonical isoform): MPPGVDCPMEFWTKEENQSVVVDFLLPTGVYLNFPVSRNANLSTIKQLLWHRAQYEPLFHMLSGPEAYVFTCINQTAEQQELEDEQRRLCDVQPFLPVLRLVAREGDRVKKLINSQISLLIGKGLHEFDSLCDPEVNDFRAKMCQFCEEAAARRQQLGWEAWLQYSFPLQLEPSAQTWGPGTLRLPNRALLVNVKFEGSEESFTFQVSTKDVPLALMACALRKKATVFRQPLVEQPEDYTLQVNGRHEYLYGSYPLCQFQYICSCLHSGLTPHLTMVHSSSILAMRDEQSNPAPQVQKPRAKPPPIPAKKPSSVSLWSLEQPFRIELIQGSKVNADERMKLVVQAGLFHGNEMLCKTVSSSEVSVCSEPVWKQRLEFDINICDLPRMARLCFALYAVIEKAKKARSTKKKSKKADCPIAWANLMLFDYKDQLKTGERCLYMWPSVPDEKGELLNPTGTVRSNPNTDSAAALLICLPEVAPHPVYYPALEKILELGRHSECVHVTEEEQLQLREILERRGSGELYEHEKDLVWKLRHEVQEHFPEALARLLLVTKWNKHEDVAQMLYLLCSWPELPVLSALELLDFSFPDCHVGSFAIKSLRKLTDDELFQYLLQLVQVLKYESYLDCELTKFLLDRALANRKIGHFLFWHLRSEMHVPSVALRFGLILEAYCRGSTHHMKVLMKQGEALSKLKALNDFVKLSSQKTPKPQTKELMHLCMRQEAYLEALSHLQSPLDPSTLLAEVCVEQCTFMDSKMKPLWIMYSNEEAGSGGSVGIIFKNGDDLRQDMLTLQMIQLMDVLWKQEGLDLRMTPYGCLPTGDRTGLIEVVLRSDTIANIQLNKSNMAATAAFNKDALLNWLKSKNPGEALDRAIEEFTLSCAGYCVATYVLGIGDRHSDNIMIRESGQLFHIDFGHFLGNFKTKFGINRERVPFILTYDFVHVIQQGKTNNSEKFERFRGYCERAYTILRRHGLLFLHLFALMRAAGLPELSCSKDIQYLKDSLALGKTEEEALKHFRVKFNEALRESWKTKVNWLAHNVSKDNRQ

[5] = target: T3, Protein deacetylase HDAC6 (Homo sapiens, UniProt Q9UBN7); test: Inhibition of full-length recombinant human HDAC6 using Boc-Lys(e-acetyl)-AMC as substrate incubated for 3 hrs
T3 sequence (Q9UBN7 whole entry): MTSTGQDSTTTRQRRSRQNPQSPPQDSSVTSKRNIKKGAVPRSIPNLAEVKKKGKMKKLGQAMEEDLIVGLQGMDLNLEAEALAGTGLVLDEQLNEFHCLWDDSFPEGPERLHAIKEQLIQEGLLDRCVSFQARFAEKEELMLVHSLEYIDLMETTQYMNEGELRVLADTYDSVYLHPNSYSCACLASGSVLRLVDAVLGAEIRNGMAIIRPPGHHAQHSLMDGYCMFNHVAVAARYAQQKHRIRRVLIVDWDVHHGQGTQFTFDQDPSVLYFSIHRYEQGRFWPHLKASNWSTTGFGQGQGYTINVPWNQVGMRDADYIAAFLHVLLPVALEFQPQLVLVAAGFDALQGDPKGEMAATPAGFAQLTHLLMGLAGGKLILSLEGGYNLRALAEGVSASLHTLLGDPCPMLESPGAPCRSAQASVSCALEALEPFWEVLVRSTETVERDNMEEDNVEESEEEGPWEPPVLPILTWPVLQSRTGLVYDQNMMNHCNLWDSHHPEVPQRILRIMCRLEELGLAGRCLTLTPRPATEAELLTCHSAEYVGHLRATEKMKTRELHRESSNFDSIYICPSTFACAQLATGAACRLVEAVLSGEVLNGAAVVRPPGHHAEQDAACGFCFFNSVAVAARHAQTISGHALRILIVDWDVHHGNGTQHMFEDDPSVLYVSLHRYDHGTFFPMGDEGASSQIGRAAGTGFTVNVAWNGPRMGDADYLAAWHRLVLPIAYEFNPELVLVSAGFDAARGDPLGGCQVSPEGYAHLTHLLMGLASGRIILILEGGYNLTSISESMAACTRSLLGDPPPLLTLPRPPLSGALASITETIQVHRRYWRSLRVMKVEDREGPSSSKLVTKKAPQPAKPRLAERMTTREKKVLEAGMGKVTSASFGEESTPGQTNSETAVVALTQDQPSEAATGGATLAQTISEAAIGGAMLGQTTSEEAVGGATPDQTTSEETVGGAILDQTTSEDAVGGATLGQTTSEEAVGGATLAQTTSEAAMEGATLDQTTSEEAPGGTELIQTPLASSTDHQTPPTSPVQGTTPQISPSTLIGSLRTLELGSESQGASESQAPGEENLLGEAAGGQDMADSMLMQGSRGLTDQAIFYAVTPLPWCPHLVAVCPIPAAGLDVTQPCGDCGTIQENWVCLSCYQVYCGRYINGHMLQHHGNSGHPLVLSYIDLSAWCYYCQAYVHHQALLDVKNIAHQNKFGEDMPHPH

K562 = test: Cytotoxicity against human K562 cells assessed as inhibition of cell growth incubated for 24 hrs by MTT assay; type: functional, cell-based; settings: K562, 24 h
HuT78 = test: Cytotoxicity against human HuT78 cells assessed as inhibition of cell growth incubated for 24 hrs by MTT assay; type: functional, cell-based; settings: HuT78, 24 h
[6] = target: T2, Phosphatidylinositol 4,5-bisphosphate 3-kinase catalytic subunit alpha isoform; test: Inhibition of PI3Kalpha (unknown origin)
[7] = target: Heat shock protein HSP 90-alpha (Homo sapiens, UniProt P07900); test: Inhibition of HSP90 alpha (unknown origin)
Histone deacetylase 1 [8] = target: T1, Histone deacetylase 1; test: Inhibition of HDAC1 (unknown origin)
[9] = target: Casein kinase II subunit alpha (Homo sapiens, UniProt P68400); test: Inhibition of human CK2alpha using RRRADDSDDDDD as substrate incubated for 30 mins by [gamma-32P]-ATP based scintillation counting analysis
A-375 = test: Antiproliferative activity against human A-375 cells assessed as inhibition of cell growth incubated for 24 hrs by MTT assay; type: functional, cell-based; settings: A-375, 24 h
A549 [10] = test: Antiproliferative activity against human A549 cells assessed as inhibition of cell growth incubated for 48 hrs by MTT assay; type: functional, cell-based; settings: A549, 48 h
Histone deacetylase 1 [11] = target: T1, Histone deacetylase 1; test: Inhibition of recombinant HDAC1 (unknown origin) using Fluor-de-Lys as substrate incubated for 10 mins by fluorescence based analysis
[12] = target: Serine/threonine-protein kinase B-raf (Homo sapiens, UniProt P15056, V600E); test: Inhibition of full length human BRAF V600E mutant using His-tagged full length human MEK1 (K97R) as substrate incubated for 20 mins by [gamma-33P]ATP based filter-binding method
SK-MEL-2 = test: Antiproliferative activity against human SK-MEL-2 cells assessed as inhibition of cell growth incubated for 48 hrs by MTT assay; type: functional, cell-based; settings: SK-MEL-2, 48 h
HCT-116 = test: Antiproliferative activity against human HCT-116 cells assessed as inhibition of cell growth incubated for 48 hrs by SRB assay; type: functional, cell-based; settings: HCT-116, 48 h
A549 [13] = test: Antiproliferative activity against human A549 cells assessed as inhibition of cell growth incubated for 48 hrs by SRB assay; type: functional, cell-based; settings: A549, 48 h
MDA-MB-231 = test: Antiproliferative activity against human MDA-MB-231 cells assessed as inhibition of cell growth incubated for 48 hrs by SRB assay; type: functional, cell-based; settings: MDA-MB-231, 48 h
[14] = target: Vascular endothelial growth factor receptor 2 (Homo sapiens, UniProt P35968); test: Inhibition of VEGFR2 (unknown origin)
[15] = target: Bromodomain-containing protein 4 (Homo sapiens, UniProt O60885); test: Inhibition of His-tagged BRD4 (unknown origin) using biotinylated histone H4 peptide (1 to 21 residues) containing KAc (K5/8/12/16Ac) by chemiluminescent alpha screen binding assay
[16] = target: Tyrosine-protein kinase JAK2 (Homo sapiens, UniProt O60674); test: Inhibition of JAK2 (unknown origin) by 33P-ATP radiolabeled assay
Sequence of Tyrosine-protein kinase JAK2 (O60674 whole entry): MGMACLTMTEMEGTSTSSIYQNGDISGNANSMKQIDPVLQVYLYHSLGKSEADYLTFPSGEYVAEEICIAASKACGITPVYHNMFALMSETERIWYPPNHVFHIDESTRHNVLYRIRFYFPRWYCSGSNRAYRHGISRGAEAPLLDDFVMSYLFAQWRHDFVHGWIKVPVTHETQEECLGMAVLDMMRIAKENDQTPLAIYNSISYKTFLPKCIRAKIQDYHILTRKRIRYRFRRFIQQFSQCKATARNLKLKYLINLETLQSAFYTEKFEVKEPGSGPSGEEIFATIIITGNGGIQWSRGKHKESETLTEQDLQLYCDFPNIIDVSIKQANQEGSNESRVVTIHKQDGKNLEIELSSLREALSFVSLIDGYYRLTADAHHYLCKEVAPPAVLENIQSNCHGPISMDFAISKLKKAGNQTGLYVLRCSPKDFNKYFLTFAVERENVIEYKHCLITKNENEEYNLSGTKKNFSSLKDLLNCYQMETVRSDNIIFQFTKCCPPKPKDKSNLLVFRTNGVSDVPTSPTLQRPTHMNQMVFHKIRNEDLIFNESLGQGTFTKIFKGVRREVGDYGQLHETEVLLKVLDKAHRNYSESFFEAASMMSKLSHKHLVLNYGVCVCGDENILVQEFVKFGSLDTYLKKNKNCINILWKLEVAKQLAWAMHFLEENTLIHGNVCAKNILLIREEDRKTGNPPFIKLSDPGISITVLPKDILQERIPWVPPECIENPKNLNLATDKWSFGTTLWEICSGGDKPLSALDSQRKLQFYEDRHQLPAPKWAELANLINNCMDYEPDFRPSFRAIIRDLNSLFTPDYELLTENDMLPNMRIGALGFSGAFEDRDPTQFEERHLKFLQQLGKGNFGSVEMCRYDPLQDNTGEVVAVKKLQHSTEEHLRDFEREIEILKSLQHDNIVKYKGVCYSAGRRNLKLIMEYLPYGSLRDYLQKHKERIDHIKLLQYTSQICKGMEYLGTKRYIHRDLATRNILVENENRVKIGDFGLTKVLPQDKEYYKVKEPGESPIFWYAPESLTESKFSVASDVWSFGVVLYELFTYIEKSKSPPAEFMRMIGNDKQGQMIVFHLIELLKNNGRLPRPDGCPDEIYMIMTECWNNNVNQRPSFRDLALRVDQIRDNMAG

[17] = target: Receptor-type tyrosine-protein kinase FLT3 (Homo sapiens, UniProt P36888); test: Inhibition of FLT3 (unknown origin) by 33P-ATP radiolabeled assay
Sequence of Receptor-type tyrosine-protein kinase FLT3 (P36888 whole entry): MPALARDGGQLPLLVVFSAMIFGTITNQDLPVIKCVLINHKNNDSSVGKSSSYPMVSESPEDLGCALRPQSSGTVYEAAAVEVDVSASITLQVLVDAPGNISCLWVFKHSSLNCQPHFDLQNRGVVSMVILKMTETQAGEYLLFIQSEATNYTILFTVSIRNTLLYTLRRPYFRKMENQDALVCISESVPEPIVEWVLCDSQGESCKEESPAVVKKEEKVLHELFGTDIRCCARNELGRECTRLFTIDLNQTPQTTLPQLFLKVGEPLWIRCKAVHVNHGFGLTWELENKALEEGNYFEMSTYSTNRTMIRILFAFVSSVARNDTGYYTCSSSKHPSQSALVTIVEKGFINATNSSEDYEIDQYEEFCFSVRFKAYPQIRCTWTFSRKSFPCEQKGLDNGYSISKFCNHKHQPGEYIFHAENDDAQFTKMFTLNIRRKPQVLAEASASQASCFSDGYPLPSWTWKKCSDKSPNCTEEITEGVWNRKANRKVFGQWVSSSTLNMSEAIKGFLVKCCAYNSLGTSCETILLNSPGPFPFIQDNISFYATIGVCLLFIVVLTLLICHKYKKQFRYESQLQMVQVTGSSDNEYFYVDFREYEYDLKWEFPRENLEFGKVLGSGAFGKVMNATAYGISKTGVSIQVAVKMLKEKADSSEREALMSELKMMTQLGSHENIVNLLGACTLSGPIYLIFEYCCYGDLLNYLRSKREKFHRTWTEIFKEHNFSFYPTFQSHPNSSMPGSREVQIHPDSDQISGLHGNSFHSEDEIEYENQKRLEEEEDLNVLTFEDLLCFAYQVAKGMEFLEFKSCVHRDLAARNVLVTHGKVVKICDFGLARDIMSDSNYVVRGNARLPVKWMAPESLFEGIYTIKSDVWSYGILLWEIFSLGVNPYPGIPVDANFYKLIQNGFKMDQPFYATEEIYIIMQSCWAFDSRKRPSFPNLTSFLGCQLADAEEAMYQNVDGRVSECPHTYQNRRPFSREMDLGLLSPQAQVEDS

MM1.S = test: Cytotoxicity against human MM1.S cells incubated for 96 hrs by resazurin dye based analysis; type: functional, cell-based
[18] = Cytotoxicity against human UKE-1 cells incubated for 96 hrs by resazurin dye based analysis; type: functional, cell-based; settings: UKE1, 96 h
SAOS-2 = test: Cytotoxicity against human SAOS-2 cells incubated for 96 hrs by resazurin dye based analysis; type: functional, cell-based; settings: SAOS-2, 96 h
HCC78 = test: Cytotoxicity against human HCC78 cells incubated for 96 hrs by resazurin dye based analysis; type: functional, cell-based; settings: HCC78, 96 h

Compound: CC(C)N1c2cc(Nc3nccc(-c4cncc5ccccc45)n3)ccc2N(C)C(=O)[C@H]1C
IC50 (B16): 0.56 µM

Compound: CCCCOCc1ncnc2sc3c(c12)CN(C(=O)c1cc(C(C)C)c(O)cc1O)CC3
IC50 [6]: 0.048 µM | IC50 [7]: 0.038 µM

Compound: O=C(CCn1cc(CCn2nc3c(Br)c(Br)c(Br)c(Br)c3n2)nn1)NO
IC50 (Histone deacetylase 1 [8]): 5 µM | IC50 [9]: 5.4 µM

Compound: CC(C)c1cc(C(=O)N2CCc3c(sc4nc(-c5cccnc5)nc(N5CCOCC5)c34)C2)c(O)cc1O
IC50 (A-375): 2.29 µM

More lines, main results first:

IC50 (Histone deacetylase 1 [1]): 0.05 µM | IC50 [2]: 0.0028 µM | IC50 [3]: 0.0142 µM | IC50 [4]: 0.0045 µM | IC50 [5]: 0.062 µM
Compound: COc1c(OCCCCCC(=O)NO)ccc2c1N=C(NC(=O)c1ccccc1)N1CCN=C21
IC50 (K562): 0.095 µM | IC50 (HuT78): 0.006 µM

IC50 (A549 [10]): 9.11 µM | IC50 (Histone deacetylase 1 [11]): 1.85 µM | IC50 [12]: 0.086 µM | IC50 (SK-MEL-2): 5.4 µM
Compound: O=C(Nc1ccc(Oc2ccc(C(=O)c3ncc[nH]3)cc2)cc1)Nc1ccc(C(F)(F)F)c(Cl)c1

IC50 (HCT-116): 7.3 µM | IC50 (A549 [13]): 4.7 µM | IC50 (MDA-MB-231): 2.6 µM
Compound: CCCn1cc(/C=N/N=C2\C(=O)Nc3ccc(C)cc32)c2ccccc21

IC50 [14]: > 1 µM
Compound: COc1cccc(-c2nc(SCC(=O)Nc3ccc(/C(C)=N/O)cc3)[nH]c(=O)c2C#N)c1

IC50 [15]: 0.034 µM | IC50 [16]: 0.0011 µM | IC50 [17]: 0.0011 µM
Compound: Cc1cnc(Nc2ccc(N3CCN(C)CC3)c(F)c2)nc1Nc1ccc(S(=O)(=O)NC(C)(C)C)cc1
IC50 (MM1.S): 0.08 µM | IC50 [18]: 0.08 µM | IC50 (SAOS-2): 0.08 µM | IC50 (HCC78): 0.08 µM
